What all share (type): biochemical
One assay addresses T1, JAK3 (Homo sapiens, UniProt P52333).
T1 sequence (P52333 1-1124): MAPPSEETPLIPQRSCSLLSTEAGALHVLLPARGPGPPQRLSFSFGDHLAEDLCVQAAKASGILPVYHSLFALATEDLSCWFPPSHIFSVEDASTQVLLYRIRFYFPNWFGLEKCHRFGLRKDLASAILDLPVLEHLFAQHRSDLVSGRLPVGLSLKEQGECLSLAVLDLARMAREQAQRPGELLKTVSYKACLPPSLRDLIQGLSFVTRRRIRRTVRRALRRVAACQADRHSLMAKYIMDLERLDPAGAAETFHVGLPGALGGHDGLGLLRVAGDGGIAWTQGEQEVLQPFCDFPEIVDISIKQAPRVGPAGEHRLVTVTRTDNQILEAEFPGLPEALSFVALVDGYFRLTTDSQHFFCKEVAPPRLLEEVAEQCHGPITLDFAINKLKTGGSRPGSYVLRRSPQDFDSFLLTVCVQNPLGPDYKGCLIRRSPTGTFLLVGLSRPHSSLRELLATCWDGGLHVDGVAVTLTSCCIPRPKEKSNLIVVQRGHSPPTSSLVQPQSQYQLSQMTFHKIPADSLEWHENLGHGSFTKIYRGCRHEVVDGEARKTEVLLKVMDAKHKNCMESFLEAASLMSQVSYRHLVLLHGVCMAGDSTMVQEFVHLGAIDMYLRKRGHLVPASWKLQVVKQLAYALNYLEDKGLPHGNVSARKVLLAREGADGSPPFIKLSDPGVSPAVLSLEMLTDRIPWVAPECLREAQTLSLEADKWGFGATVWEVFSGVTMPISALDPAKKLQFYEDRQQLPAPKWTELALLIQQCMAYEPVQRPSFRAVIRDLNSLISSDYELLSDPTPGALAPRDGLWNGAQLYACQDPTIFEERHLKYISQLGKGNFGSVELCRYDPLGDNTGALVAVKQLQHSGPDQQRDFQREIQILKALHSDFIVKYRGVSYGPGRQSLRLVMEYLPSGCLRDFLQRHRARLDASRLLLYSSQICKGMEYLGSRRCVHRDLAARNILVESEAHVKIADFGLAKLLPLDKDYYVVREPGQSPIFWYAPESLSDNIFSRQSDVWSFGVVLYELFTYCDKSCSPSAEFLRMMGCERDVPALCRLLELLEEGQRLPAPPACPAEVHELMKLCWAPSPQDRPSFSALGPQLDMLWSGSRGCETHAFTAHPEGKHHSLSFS
Kind of assay: JAK3 inhibition assay (standard radioactive enzyme assay). As to conditions: average Ki if more than one value determined. The procedure: (§1) Compounds were screened for their ability to inhibit JAK3 using a standard radioactive enzyme assay. 1.5 μL/well of a DMSO stock containing serial dilutions of a compound of the present invention (concentrations ranging from 667 μM to 46 nM) was placed in a 96 well polycarbonate plate. 50 μL per well of kinase buffer (100 mM HEPES (pH 7.4), 10 mM MgCl2, 25 mM NaCl, 1 mM DTT, and 0.01% bovine serum albumin (BSA)) containing 2 μM poly(Glu)4Tyr and 10 μM ATP was also added to the plate. To initiate the reaction, 50 μL kinase buffer containing 2 nM JAK3 enzyme was added. Final ATP concentration was 5 μM [γ-^33P] ATP (200 μCi ^33P ATP/μmol ATP (Perkin Elmer, Cambridge, Mass.). After 20 minutes at room temperature (25° C.), the reaction was stopped by adding 50 μL 20% trichloroacetic acid (TCA)/0.4 mM ATP to each well. The entire content of each well was then transferred to a 96 well glass fiber filter plate using a TomTek Cell Harvester. After washing, 60 μL scintillation fluid was added and ^33P incorporation detected using a Perkin Elmer TopCount. After removing mean background values for all of the data points the data was fit using Prism software to obtain a Ki(app). Inhibition of JAK2 was measured as above except that final poly(Glu)4Tyr concentration was 15 μM and final ATP concentration was 12 μM.

The target of another assay is JAK2 (Homo sapiens, UniProt O60674). Kind of assay: JAK2 inhibition assay (radioactive enzyme assay, as for JAK3). As to conditions: average Ki if more than one value determined. The procedure: as §1
The target of the next assay is T2, ROCK I (AA 6-553) (Homo sapiens, UniProt Q13464).
T2 construct: ROCK I (AA 6-553)
Kind of assay: ROCK inhibition assay, standard coupled enzyme system ("Enzyme"). The note with it: enzyme-linked assay. An outline of the steps:
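ROCK I (AA 6-553) at 45 nM and 30 °C with 45 μM ATP and 200 μM peptide, in 100 mM HEPES pH 7.5, 10 mM MgCl2, 25 mM NaCl, 2 mM DTT, 1.5% DMSO. ADP output read by a PK/LDH coupled system: 2.5 mM PEP, 350 μM NADH, 30 μg/ml PK, 10 μg/ml LDH.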

T2 sequence (Q13464 6-553, species assumed): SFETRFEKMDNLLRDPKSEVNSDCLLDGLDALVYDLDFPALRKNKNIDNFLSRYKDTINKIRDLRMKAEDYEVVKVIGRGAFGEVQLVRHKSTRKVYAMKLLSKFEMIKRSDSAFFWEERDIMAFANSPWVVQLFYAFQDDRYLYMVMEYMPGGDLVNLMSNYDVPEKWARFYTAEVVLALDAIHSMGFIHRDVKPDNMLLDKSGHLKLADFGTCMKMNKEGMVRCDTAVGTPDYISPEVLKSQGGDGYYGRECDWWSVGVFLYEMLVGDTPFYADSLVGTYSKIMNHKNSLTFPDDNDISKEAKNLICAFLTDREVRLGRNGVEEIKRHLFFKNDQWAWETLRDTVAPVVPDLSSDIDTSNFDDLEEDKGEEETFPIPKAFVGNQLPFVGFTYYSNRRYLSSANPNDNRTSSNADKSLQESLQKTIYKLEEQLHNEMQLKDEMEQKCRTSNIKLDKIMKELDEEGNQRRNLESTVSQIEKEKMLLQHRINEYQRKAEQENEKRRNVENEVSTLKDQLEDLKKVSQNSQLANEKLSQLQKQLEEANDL
Chain of JAK2 (O60674 whole entry, species assumed, the tested form may be a part): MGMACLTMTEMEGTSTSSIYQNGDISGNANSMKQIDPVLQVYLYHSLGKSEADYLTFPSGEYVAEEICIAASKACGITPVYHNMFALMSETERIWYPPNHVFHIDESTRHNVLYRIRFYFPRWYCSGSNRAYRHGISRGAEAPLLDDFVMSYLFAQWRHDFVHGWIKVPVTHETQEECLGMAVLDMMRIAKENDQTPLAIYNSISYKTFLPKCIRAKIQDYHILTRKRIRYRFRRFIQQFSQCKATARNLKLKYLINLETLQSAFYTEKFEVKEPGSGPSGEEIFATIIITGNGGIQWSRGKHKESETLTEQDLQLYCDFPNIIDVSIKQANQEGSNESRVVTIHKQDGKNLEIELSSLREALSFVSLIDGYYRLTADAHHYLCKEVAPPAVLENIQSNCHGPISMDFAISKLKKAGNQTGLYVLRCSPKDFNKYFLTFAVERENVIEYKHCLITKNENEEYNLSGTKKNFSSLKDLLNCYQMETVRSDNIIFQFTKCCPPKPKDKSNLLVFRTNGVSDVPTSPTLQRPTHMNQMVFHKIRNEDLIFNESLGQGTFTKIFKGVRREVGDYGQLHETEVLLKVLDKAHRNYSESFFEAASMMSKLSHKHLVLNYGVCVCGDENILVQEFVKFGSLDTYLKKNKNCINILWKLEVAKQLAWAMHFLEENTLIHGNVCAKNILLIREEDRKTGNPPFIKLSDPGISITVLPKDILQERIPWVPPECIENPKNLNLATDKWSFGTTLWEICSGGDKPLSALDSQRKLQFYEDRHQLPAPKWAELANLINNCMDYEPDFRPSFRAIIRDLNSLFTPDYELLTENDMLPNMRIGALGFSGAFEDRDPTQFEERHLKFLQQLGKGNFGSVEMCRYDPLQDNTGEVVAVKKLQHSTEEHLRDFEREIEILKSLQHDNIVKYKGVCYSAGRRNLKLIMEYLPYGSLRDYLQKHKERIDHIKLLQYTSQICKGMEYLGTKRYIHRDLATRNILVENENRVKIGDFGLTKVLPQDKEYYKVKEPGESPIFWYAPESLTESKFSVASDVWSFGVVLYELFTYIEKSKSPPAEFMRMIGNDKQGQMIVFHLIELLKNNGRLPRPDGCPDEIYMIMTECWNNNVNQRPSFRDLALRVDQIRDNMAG

`CC(=O)N1[C@H](C)CN(c2cccc(-c3c[nH]c4ncc(NC(=O)c5ccc(F)cc5)cc34)n2)C[C@@H]1C` [Compound 189]: the Ki at JAK3 was less than 500 nM; at JAK2 it was less than 500 nM; on ROCK I (AA 6-553), 500 to 5000 nM.
As for `O[C@H]1Cc2ccccc2[C@H]1Nc1cccc(-c2c[nH]c3ncc(Cl)cc23)n1` [Compound 136], the Ki at JAK3, at JAK2 and on ROCK I (AA 6-553) was less than 500 nM throughout.
`CC(=O)N1[C@H](C)CN(c2cccc(-c3c[nH]c4ncc(NC(=O)Oc5ccc(C)cc5)cc34)n2)C[C@@H]1C` [Compound 61]: the figures for the Ki at JAK3, on JAK2 and on ROCK I (AA 6-553) were less than 500 nM, less than 500 nM and 500 to 5000 nM, respectively.
Take `CC(=O)N1[C@H](C)CN(c2cccc(-c3c[nH]c4ncc(NC(=O)[C@H]5CCCCN5)cc34)n2)C[C@@H]1C` [Compound 171]: the Ki on JAK3 is less than 500 nM; at JAK2, less than 500 nM; on ROCK I (AA 6-553), 500 to 5000 nM.
As to `O[C@@H]1Cc2ccccc2[C@@H]1Nc1cccc(-c2c[nH]c3ncc(Cl)cc23)n1` [Compound 137], the Ki is less than 500 nM at JAK3, less than 500 nM at JAK2 and 500 to 5000 nM at ROCK I (AA 6-553).
As for `CC(=O)N1[C@H](C)CN(c2cccc(-c3c[nH]c4ncc(OCCOC(C)C)cc34)n2)C[C@@H]1C` [Compound 209], the inhibitory constant (Ki) is less than 500 nM on JAK3 and 500 to 5000 nM on ROCK I (AA 6-553).
With `O=C(O)Cc1cccc(-c2c[nH]c3ncc(Cl)cc23)c1` [Compound 178], the inhibitory constant (Ki) at JAK3, on JAK2 and on ROCK I (AA 6-553) was 500 to 5000 nM throughout.
Take `NC(=O)c1ccc(-c2c[nH]c3ncc(Cl)cc23)cc1` [Compound 105]: the Ki on JAK3 was less than 500 nM; on JAK2, less than 500 nM; at ROCK I (AA 6-553) it was 500 to 5000 nM.
For the compound `N#Cc1ccc(-c2c[nH]c3ncc(Cl)cc23)cc1` [Compound 176], the Ki at JAK3 and at JAK2 was less than 500 nM in each case.
On to `CC(=O)N1[C@H](C)CN(c2cccc(-c3c[nH]c4ncc(NC(=O)c5cccc(Cl)c5)cc34)n2)C[C@@H]1C` [Compound 174], for which the inhibitory constant (Ki) on JAK3 and at JAK2 was less than 500 nM throughout.
Regarding `O=C(O)c1ccc(-c2c[nH]c3ncc(Cl)cc23)cc1Cl` [Compound 175], the Ki on JAK3 and on JAK2 was less than 500 nM in each case.
As for `CC(=O)N1[C@H](C)CN(c2cccc(-c3c[nH]c4ncc(C(=O)N5CCCCCC5)cc34)n2)C[C@@H]1C` [Compound 55], the Ki on JAK3 and at JAK2 was 500 to 5000 nM in each case.
As to `O=C(O)c1ccc(-c2c[nH]c3ncc(Cl)cc23)c(F)c1` [Compound 188], the Ki at JAK3 is 500 to 5000 nM; at JAK2 it was greater than 5000 nM.
Regarding `CCOc1cnc2[nH]cc(-c3cccc(N4C[C@@H](C)N(C(C)=O)[C@@H](C)C4)n3)c2c1` [Compound 205], the Ki on JAK3 is less than 500 nM; on ROCK I (AA 6-553), 500 to 5000 nM.
Taken in the same sequence, the figures for `CC(=O)N1[C@H](C)CN(c2cccc(-c3c[nH]c4ncc(OCCCN5CCOCC5)cc34)n2)C[C@@H]1C` [Compound 208] were less than 500 nM and 500 to 5000 nM.
For the compound `FC(F)(F)c1cc(NCc2ccccc2)cc(-c2c[nH]c3ncc(Cl)cc23)c1` [Compound 187], the inhibitory constant (Ki) on JAK3 is less than 500 nM; on JAK2, 500 to 5000 nM.
Consider `Cc1cccc(-c2c[nH]c3ncc(Cl)cc23)c1` [Compound 185], for which the Ki is less than 500 nM on JAK3 and 500 to 5000 nM at JAK2.
`C=C(C)COc1cnc2[nH]cc(-c3cccc(N4C[C@@H](C)N(C(C)=O)[C@@H](C)C4)n3)c2c1` [Compound 207]: the Ki was less than 500 nM at JAK3 and 500 to 5000 nM on ROCK I (AA 6-553).
On to `CC(=O)N1[C@H](C)CN(c2cccc(-c3c[nH]c4ncc(OC(C)C)cc34)n2)C[C@@H]1C` [Compound 206], for which the results for the inhibition constant Ki at JAK3 and on ROCK I (AA 6-553) were less than 500 nM and 500 to 5000 nM, respectively.
The matching figures for `COc1cnc2[nH]cc(-c3ncc(F)c(N[C@@H](C)C(=O)NCC(F)(F)F)n3)c2c1` [Compound 204]: less than 500 nM and 500 to 5000 nM.

The values above are taken from patent US8501446B2 (Vertex Pharmaceuticals Incorporated, priority 2004, dated 2013).
